Experimental data: US5158963A, “1-4-dihydropyridine derivative, process for preparing the same and pharmaceutical composition containing the same” (Kaken Pharmaceutical Co., Ltd., priority 1989, dated 1992)
“Also recorded” adds a separate entry of the source.

Legend:
[1] = system: tonic extensive convulsion (maximal electroshock-induced seizures); test: Activity against maximal electroshock-induced seizures in mice; assay type: in vivo, mouse (Slc:ddy male mice); conditions: oral; for inhibitory activity against tonic extensive convulsion (share of cases): 200 mg/kg
Description: In each group six Slc: ddy male mice weighing 26 to 31 g (5 weeks) were employed. Sixty minutes after oral administration of a test compound, corneal electrodes which were wet by physiological saline were contacted with both eyes of a mouse. Then, appearance of tonic extensive convulsion (TE) caused by electrifying under a stimulation condition of 50 mA, 1000 V and 0.2 sec by means of the apparatus of Woodburg & Davenport (made by Kyoto Keisokuki) was judged as indication.
Each of diphenylhydantoin, the compounds Nos. 2, 4, 5, 6, 7, 50, 51 and 52 of the present invention (refer Table 1, hereinafter the same) and nimodipine was suspended in a 0.5% solution of methyl cellulose to subject the test. Flunarizine was suspended in a 5% solution of gum arabic to subject the test.

[2] = system: immobility time of forced swimming test; test: Activity against immobility time of forced swimming test in mice; assay type: in vivo, mouse (Slc:ICR male mice); conditions: oral; for effect on the immobility time (in words): 200 mg/kg
Experimental: In each group 6 Slc:ICR male mice weighing 25 to 32 g (5 weeks) were bred at the room temperature of 22° to 24° C. under an environment of 60% humidity for 1 week, and then the bred mice were subjected to the following test. The test was carried out by monitering action to voluntarily escape with TV camera when a mouse was put into a cylinder of which inner diameter was 11 cm wherein 17 cm of water being the temperature 25° C. as added. As indication immobility time for 6 minutes was measured. In the test mice were employed which were compulsorily swun for 6 minutes in once per day for continuous 3 day. The investigation for immobility time was carried out by measuring immobility time for 6 minutes 1 hour after oral administration of a test compound. Each of test compound was suspended in a 0.5% solution of methyl cellulose used as a control group. Significant difference is shown with the significance level (* : p<0.05) obtained by comparing data of control group by LSD method.

[3] = system: decapitation induced hypoxia; test: Activity against decapitation induced hypoxia in mice; assay type: in vivo, mouse (Slc:ddy male mice); conditions: Mus musculus, 1 h, oral, 60 min before decapitation, duration of gasping vs control, read-out: Inhibition rate
Experimental: In each group five Slc:ddy male mice weighing 20 to 22 g (4 weeks) were employed. Sixty minutes after oral administration of a test compound, mice were decapitated with a guillotine. After the decapitation, duration of gasping of head was measured with a timer (CT-916 Type, made by HATTORI SEIKO CO., LTD.) gearing into the guillotine.
Each of test compound was suspended in a 0.5% solution of methyl cellulose and administered. Inhibition rate was calculated by comparing with a 0.5% aqueous solution of methyl cellulose as control. That is, the inhibition rate was calculated by the following formula. [formula]

blood pressure = test: Activity for blood pressure in rats; assay type: in vivo, rat (Wister male rats); conditions: oral; for Blood pressure: 100 mg/kg
Experimental: In each group 4 Wister male rats weighing 200 to 300 g (10 to 15 weeks) were employed. The day before a test, rats were anesthetized with eter, and a polyethylene tube was inserted into aorta abdominalis of a rat. The other end of the polyethylene tube was led out of the rat's body. The led polyethylene tube was connected with a pressure transducer (RM-85, made by Yamamoto Kohden). Blood pressure was measured under a condition of no restriction.

C#Cc1cccc(C2C(C(=O)OC(C)C)=C(C)NC(C)=C2C(=O)OC(C)C)c1 [Compound No. 6, 3,5-Diisopropoxycarbonyl-1,4-dihydro-2,6-dimethyl-4-(3-ethynylphenyl)pyridine]
inhibitory activity against tonic extensive convulsion (share of cases) [1]: a third
effect on the immobility time (in words) [2]: showed the effect on the immobility time
effect on immobility time of forced swimming test (in words) [2]: immobility time of forced swimming test reduced

C#Cc1cccc(C2C(C(=O)OCC)=C(C)NC(C)=C2C(=O)OCC=C)c1 (stereo not drawn) [Compound No. 50, 5-Ethoxycarbonyl-3-allyloxycarbonyl-1,4-dihydro-2,6-dimethyl-4-(3-ethynylphenyl)pyridine]
inhibitory activity against tonic extensive convulsion (share of cases) [1]: all cases
inhibition in vivo at 100 mg/kg [3]: 31.1%
effect on the immobility time (in words) [2]: showed the effect on the immobility time
effect on immobility time of forced swimming test (in words) [2]: immobility time of forced swimming test reduced

COCCOC(=O)C1=C(C)NC(C)=C(C(=O)OC(C)C)C1c1cccc([N+](=O)[O-])c1 (stereo not drawn) [Nimodipine, isopropyl, 2-methoxyethyl 2,6-dimethyl-4-(3-nitrophenyl)-1,4-dihydropyridine-3,5-dicarboxylate, reference compound]
inhibitory activity against tonic extensive convulsion (share of cases) [1]: No inhibitory activity
effect on maximal electroshock-induced seizures (in words) [1]: ineffective
inhibition in vivo at 10 mg/kg [3]: 2.1%
inhibition in vivo at 30 mg/kg [3]: 9.3%
effect on immobility time of forced swimming test (in words) [2]: ineffective; also recorded: no effect

C#Cc1cccc(C2C(C(=O)OCC)=C(C)NC(C)=C2C(=O)OCC=CC)c1 (stereo not drawn) [Compound No. 51, 5-Ethoxycarbonyl-3-crotyloxycarbonyl-1,4-dihydro-2,6-dimethyl-4-(3-ethynylphenyl)pyridine]
inhibitory activity against tonic extensive convulsion (share of cases) [1]: all cases
inhibition in vivo at 30 mg/kg [3]: 25.7%
inhibition in vivo at 100 mg/kg [3]: 28.3%
effect on the immobility time (in words) [2]: showed the effect on the immobility time
effect on immobility time of forced swimming test (in words) [2]: immobility time of forced swimming test reduced

C#Cc1cccc(C2C(C(=O)OC)=C(C)NC(C)=C2C(=O)OC(C)C)c1 (stereo not drawn) [Compound No. 7, 5-Isopropoxycarbonyl-3-methoxycarbonyl-1,4-dihydro-2,6-dimethyl-4-(3-ethynylphenyl)pyridine]
inhibitory activity against tonic extensive convulsion (share of cases) [1]: a third
effect on the immobility time (in words) [2]: showed the effect on the immobility time
effect on immobility time of forced swimming test (in words) [2]: immobility time of forced swimming test reduced

C#Cc1cccc(C2C(C(=O)OCC)=C(C)NC(C)=C2C(=O)OCCC)c1 (stereo not drawn) [Compound No. 5, 5-Ethoxycarbonyl-3-n-propoxycarbonyl-1,4-dihydro-2,6-dimethyl-4-(3-ethynylphenyl)pyridine]
inhibitory activity against tonic extensive convulsion (share of cases) [1]: two thirds
effect on the immobility time (in words) [2]: showed the effect on the immobility time
effect on immobility time of forced swimming test (in words) [2]: immobility time of forced swimming test reduced

COC(=O)C1=C(C)NC(C)=C(C(=O)OCCN(C)Cc2ccccc2)C1c1cccc([N+](=O)[O-])c1 (stereo not drawn) [Nicardipine, 2-(N-benzyl-N-methylamino)ethyl,methyl 2,6-dimethyl-4-(3-nitrophenyl)-1,4-dihydropyridine-3,5-dicarboxylate hydro chloride, reference compound]
Blood pressure (blood pressure; after 15 min.): 100.0 mmHg
Blood pressure (blood pressure; after 30 min.): 67.2 mmHg
Blood pressure (blood pressure; after 60 min.): 69.2 mmHg
Blood pressure (blood pressure; after 120 min.): 67.2 mmHg
activity for decreasing blood pressure (in words) (blood pressure; normal rats): strong antihypertensive activity; also recorded: remarkable activity for decreasing blood pressure
inhibition in vivo at 10 mg/kg [3]: 4.2%
inhibition in vivo at 30 mg/kg [3]: 6.8%
